The structures appear in SMILES notation. In brackets after ≈: the same amount, converted by molar mass. Like-named read-outs stand apart in the source and are kept apart here.

The text below walks through data of patent US11498909B2, “Compound acting as antibiotics” (KBP BIOSCIENCES CO., LTD., priority 2018, dated 2022).

One data set deals with Escherichia coli. Briefly: In vitro antibacterial activity, agar dilution MIC (Experiment 1). The class given is cell-based. How it is done:
(§1) Tested strains: all the clinically separated strains below were purchased from public facilities.
(§2) Escherichia coli ATCC25922, Pseudomonas aeruginosa ATCC27853, Klebsiella pneumoniae ATCC700603, and the like.
(§3) Tested Samples: Imipenem, Ceftazidime: Commercial Products, the Following Experiments were Carried Out According to the Content of an Effective Ingredient in Each Commercial Product;
(§4) The compounds of the present invention, their chemical names, and preparation methods are shown in the preparation example of each compound.
(§5) Experiment method: Agar dilution method, refer to National Committee for Clinical Laboratory Standards. 2006. Methods for Dilution Antimicrobial Susceptibility Tests for Bacteria That Grow Aerobically; Approved Standard—Seventh Edition M7-A7, Vol 26, No. 2, 2006, to determine the MIC of the compound. MIC represents the minimum inhibitory concentration.

The test system of a further data set is Klebsiella pneumoniae. Described as above. The class given is cell-based. On the procedure:
as §1, §2, §3, §4, §5

The next data set deals with Pseudomonas aeruginosa. The data set is described as above. The class given is cell-based. How it is done:
as §1, §2, §3, §4, §5

Data set [1] in a line: Pharmacokinetics (PK) determination in SD rats (Experiment 4). The class given is in vivo. To be noted: plasma; for Cl_obs / Vz_obs / t1/2z / λ_z: IV 2 mg/kg; for AUC(0-t) / AUC(0-inf): Sprague-Dawley (SD), rat, iv, 2 mg/kg; for AUC(0-inf): read-out: AUCINF_obs. On the procedure:
The compound of the present invention, self-prepared and dissolved in a suitable solvent.
Instrument and equipment: API4000 LC-MS/MS
Chromatographic column: Waters XBridge C18(2.1×50 mm, […])
Rat blood collection: Animals were fixed. The animal's tail was heated with a water bathtub 10 minutes before each time point. About 200 μL of the blood was collected through the caudal vein. After the blood collection, the blood was placed in an anticoagulation tube containing heparin sodium. The blood samples were centrifuged at 8000 rpm for 6 minutes at 4° C. to obtain plasma samples. The plasma must be prepared within 30 minutes after the blood collection. The plasma was stored in a refrigerator at −80° C. before the test.
(1) Test samples were removed from the refrigerator (−80° C.), naturally thawed at room temperature, and then vortexed for 5 minutes;
(2) 20 μL sample was precisely pipetted to a 1.5 mL centrifuge tube;
(3) 200 μL of the internal standard solution was added;
(4) The mixture was vortexed for 5 minutes and centrifuged for 5 minutes (12000 revolutions per minute);
(5) 100 μL of the supernate was precisely pipetted, 100 μL of water was added, the mixture was vortexed for 5 minutes, and the sample was sent to LC-MS/MS for analysis.
The results of the concentrations of the test samples (plasma samples) were output with Analyst 1.6.1 of AB Corporation. The meaning value, the standard deviation, the coefficient of variation, and other parameters (not necessary to calculate the parameter that can be directly output from Analyst 1.6.1) were calculated with Microsoft Excel, and the PK parameter is calculated with Pharsight Phoenix 6.1 software.

Setting [2] is: agar dilution (Table 3), read-out: MIC50.
The mark [3] stands for this setting: agar dilution (Table 3), read-out: MIC90.

As usually defined, the MIC50 is an inhibitory concentration at the 50% level, which refers to growth in some studies and to a panel of isolates in others. Broadly, the MIC90 is an inhibitory concentration at the 90% level, which refers to growth in some studies and to a panel of isolates in others. The AUC(0-t) is exposure summed from dosing to a finite time, without extrapolation to infinity. The low end stands for less exposure, the high end for more exposure. On to `C[C@@H](O)[C@H](NC(=O)c1ccc(C#CC#Cc2ccc(CN(C)C)o2)cc1)C(=O)NO` [Compound 4, 4-((5-((dimethylamino)methyl)furan-2-yl)buta-1,3-diynyl)-N-((2S,3R)-3-hydroxy-1-(hydroxyamino)-1-oxobutan-2-yl)benzamide], for which, in the data set with Escherichia coli, the MIC50 came out at 0.25 µg/mL (≈ 0.611 µM) and the MIC90 worked out at 0.25 µg/mL (≈ 0.611 µM). In the data set with Klebsiella pneumoniae, this molecule registered an MIC50 of 1 µg/mL (≈ 2.44 µM) and an MIC90 of 2 µg/mL (≈ 4.88 µM). In the data set with Pseudomonas aeruginosa, this molecule showed an MIC50 of 1 µg/mL (≈ 2.44 µM) and an MIC90 of 4 µg/mL (≈ 9.77 µM). In data set [1], this molecule displayed a Cl_obs of 80 ± 1.83 mL/min/kg, a Vz_obs of 1.74 ± 0.81 L/kg, a t1/2z of 15 ± 7.2 min and a λ_z of 3.16 ± 1.28 h⁻¹. Moreover, in data set [1], the area under the curve AUC(0-t) worked out at 414 ± 10.3 ng·h/mL and the AUC(0-inf) amounted to 417 ± 9.68 ng·h/mL.

Take `C[C@@H](O)[C@H](NC(=O)c1ccc(C#CC#Cc2ccc(CNC3CC3)o2)cc1)C(=O)NO` [Compound 11, 4-((5-((cyclopropylamino)methyl)furan-2-yl)buta-1,3-diynyl)-N-((2S,3R)-3-hydroxy-1-(hydroxamino)-1-oxobutan-2-yl)benzamide]: the MIC50 with Escherichia coli (agar dilution, read-out: MIC50) turned out to be 0.125 µg/mL (≈ 0.297 µM); in the data set with Klebsiella pneumoniae (agar dilution, read-out: MIC50), 0.5 µg/mL (≈ 1.19 µM); with Pseudomonas aeruginosa (setting [2]), 1 µg/mL (≈ 2.37 µM). Further, the MIC90 in the data set on Escherichia coli (agar dilution, read-out: MIC90) was determined as 0.25 µg/mL (≈ 0.593 µM); in the data set with Klebsiella pneumoniae (agar dilution, read-out: MIC90) it was 2 µg/mL (≈ 4.75 µM); in the data set with Pseudomonas aeruginosa (setting [3]), 8 µg/mL (≈ 19 µM).

Turning to `C[C@@H](O)[C@H](NC(=O)c1ccc(C#CC#Cc2ccc(CNCCOCCO)o2)cc1)C(=O)NO` [Compound 18, N-((2S,3R)-3-hydroxy-1-(hydroxyamino)-1-oxobutan-2-yl)-4-((5-((2-(2-hydroxyethoxy)ethylamino)methyl)furan-2-yl)buta-1,3-diynyl)benzamide], the MIC50 in the data set on Klebsiella pneumoniae (agar dilution, read-out: MIC50) worked out at 2 µg/mL (≈ 4.26 µM); in the data set with Pseudomonas aeruginosa (setting [2]), 1 µg/mL (≈ 2.13 µM). For the same molecule, the MIC90 is 2 µg/mL (≈ 4.26 µM) in the data set with Klebsiella pneumoniae (agar dilution, read-out: MIC90) and 4 µg/mL (≈ 8.52 µM) in the data set with Pseudomonas aeruginosa (setting [3]).

With `C[C@@H](O)[C@H](NC(=O)c1ccc(C#CC#Cc2ccc(CN3CCOCC3)o2)cc1)C(=O)NO` [Compound 23, N-((2S,3R)-3-hydroxy-1-(hydroxyamino)-1-oxobutan-2-yl)-4-((5-(morpholinomethyl)furan-2-yl)buta-1,3-diynyl)benzamide], the MIC50 with Escherichia coli (agar dilution, read-out: MIC50) is 0.25 µg/mL (≈ 0.554 µM). In addition, in the data set with Escherichia coli (agar dilution, read-out: MIC90), the MIC90 came to 0.25 µg/mL (≈ 0.554 µM). For the same molecule, the MIC50 in the data set on Klebsiella pneumoniae (agar dilution, read-out: MIC50) was determined as 1 µg/mL (≈ 2.21 µM). Further, the MIC90 with Klebsiella pneumoniae (agar dilution, read-out: MIC90) amounted to 1 µg/mL (≈ 2.21 µM). In addition, the MIC50 in the data set on Pseudomonas aeruginosa (setting [2]) stood at 1 µg/mL (≈ 2.21 µM). Also, the MIC90 with Pseudomonas aeruginosa (setting [3]) was found to be 8 µg/mL (≈ 17.7 µM). In data set [1], this molecule yielded a Cl_obs of 30 ± 8.33 mL/min/kg, a Vz_obs of 0.52 ± 0.02 L/kg, a t1/2z of 12.6 ± 3.6 min and a λ_z of 3.47 ± 1.09 h⁻¹. For the same molecule, in data set [1], the AUC(0-t) amounted to 1160 ± 278 ng·h/mL and the AUC(0-inf) was 1160 ± 277 ng·h/mL.

Regarding `C[C@@H](O)[C@H](NC(=O)c1ccc(C#CC#Cc2ccc(CO)n2C)cc1)C(=O)NO` [Compound 33, N-((2S,3R)-3-hydroxy-1-(hydroxamino)-1-oxobutan-2-yl)-4-((5-(hydroxymethyl)-1-methyl-1H-pyrrol-2-yl)buta-1,3-diynyl)benzamide], in the data set with Escherichia coli, the MIC50 came to 0.125 µg/mL (≈ 0.316 µM) and the MIC90 is 0.125 µg/mL (≈ 0.316 µM). Moreover, in the data set on Klebsiella pneumoniae, the MIC50 came out at 0.5 µg/mL (≈ 1.26 µM) and the MIC90 came out at 1 µg/mL (≈ 2.53 µM). In the data set on Pseudomonas aeruginosa, this molecule registered an MIC50 of 1 µg/mL (≈ 2.53 µM) and an MIC90 of 8 µg/mL (≈ 20.2 µM). Also, in data set [1], the Cl_obs was determined as 56.5 ± 22.3 mL/min/kg, the Vz_obs stood at 1.21 ± 0.34 L/kg, the t1/2z is 15.6 ± 2.4 min and the λ_z is 2.75 ± 0.50 h⁻¹. Moreover, in data set [1], the area under the curve AUC(0-t) was 666 ± 318 ng·h/mL and the AUC(0-inf) came out at 671 ± 315 ng·h/mL.
